This is an account of results in patent US9018411B2, “Bis-acylated hydroxylamine derivatives” (Cardioxyl Pharmaceuticals, Inc., priority 2009, dated 2015).

Series [1] in a line: HNO production via N2O quantification (GC headspace analysis). It counts as physicochemical. The conditions noted are these: 37° C. under argon, N2O relative to Angeli's salt; for % N2O pH 7.4: compound incubated in PBS buffer; for % N2O pH 10.3: compound incubated in pH 10.3 carbonate buffer; for % N2O DI: compound incubated in DI water. The procedure: (§1) Nitrous oxide is produced via the dimerization and dehydration of HNO, and is the most common marker for HNO production (Fukuto, J. M. et al., Chem. Res. Toxicol. 2005, 18, 790-801).
(§2) The ability of compounds to donate HNO is assessed. N2O results are reported relative to Angeli's salt. All decompositions are carried out at 37° C. under argon.

The nature of series [2]: Decomposition of compound in PBS buffer, pH 7.4 determined by HPLC. It counts as physicochemical. The conditions noted are these: 37° C. under argon; for half-life: read-out: approximate half-life (in parentheses in Decomp. Time column). As for the experimental part:
as §2

In the next series the test system is esterase. Nature of the series: HNO production via N2O quantification in PBS buffer, pH 7.4 with added esterase. To be noted: pH 7.4 with 2-4 mg added esterase, 37° C. under argon, N2O relative to Angeli's salt. In kind it is in vitro ADME. The procedure:
as §1, §2

Some results are limits rather than exact numbers.

Take `CC(=O)ON(C(C)=O)S(=O)(=O)c1c(Cl)cccc1Cl` [Compound 23, N-(2,6-dichlorobenzenesulfonyl)-N-acetyloxy-acetamide]: in series [1], the “% N2O pH 7.4” value is listed as 56% and the “% N2O pH 10.3” value is 56%. In series [2], the “Decomp. Time (time required for complete decomposition)” value (“Decomp. Time” below) was below 3 h and the half-life is around 40 min. Moreover, in the series on esterase, the “% N2O esterase” value amounted to 57%.

Take `O=C(c1ccccc1)N(Cl)OC(=O)C(F)(F)F` [Compound 8, N-chloro-N-(2,2,2-trifluoroacetoxy)benzamide]: the “% N2O pH 7.4” value in series [1] came out at 2%. Besides, the “Decomp. Time” value in series [2] is below 3 h.

As to `CC(=O)ON(C(C)=O)S(=O)(=O)c1ccc(Cl)cc1` [Compound 18, N-(4-chlorobenzenesulfonyl)-N-acetyloxy-acetamide], in series [1], the “% N2O pH 7.4” value stood at 4%. Further, the “Decomp. Time” value in series [2] is on record as below 3 h.

As to `CC(=O)ON(C(=O)OCc1ccccc1)S(=O)(=O)c1c(Cl)cccc1Cl` [Compound 29, N-(2,6-dichlorobenzenesulfonyl)-N-acetyloxy-benzyl-carbamate], in series [1], the “% N2O pH 7.4” value is reported as 21% and the “% N2O pH 10.3” value amounted to 52%. Moreover, the “Decomp. Time” value in series [2] was below 3 h. Moreover, the “% N2O esterase” value in the series on esterase is given as 83%.

Turning to `CC(=O)ON(C(C)=O)S(=O)(=O)c1c(Br)cccc1Br` [Compound 22, N-(2,6-dibromobenzenesulfonyl)-N-acetyloxy-acetamide], in series [1], the “% N2O pH 7.4” value was found to be 71%. In series [2], the “Decomp. Time” value was below 2 h and the half-life was around 20 min.

Consider `CC(=O)ON(C(C)=O)S(=O)(=O)c1ccccc1[N+](=O)[O-]` [Compound 25, N-(2-nitrobenzenesulfonyl)-N-acetyloxy-acetamide], for which the “% N2O pH 7.4” value in series [1] is recorded as 13%. Also, in series [2], the “Decomp. Time” value is given as below 3 h.

Consider `CC(C)(C)OC(=O)N(Cl)OC(=O)c1ccc([N+](=O)[O-])cc1` [Compound 13], for which the “% N2O DI” value in series [1] turned out to be 9%. The “Decomp. Time” value in series [2] is listed as below 3 h.

For `CC(=O)ON(C(=O)OC(C)(C)C)S(=O)(=O)c1c(Cl)cccc1Cl` [Compound 37, N-(2,6-dichlorobenzenesulfonyl)-N-acetyloxy-tert-butyl-carbamate], the “% N2O pH 7.4” value in series [1] came to 4%. Further, the “Decomp. Time” value in series [2] was below 3 h. The “% N2O esterase” value with esterase stood at 85%.

Turning to `CC(=O)ON(Cl)C(=O)OC(C)(C)C` [Compound 10, N-chloro-N-acetyloxy-tert-butyl- carbamate], in series [1], the “% N2O DI” value was 98% and the “% N2O pH 7.4” value was 39%. The “Decomp. Time” value in series [2] is below 3 h.

In the case of `CC(=O)ON(C(C)=O)S(=O)(=O)c1c(F)cc(F)cc1Br` [Compound 21, N-(2-bromo-4,6-difluoro-benzenesulfonyl)-N-acetyloxy-acetamide], the “% N2O pH 7.4” value in series [1] was determined as 39%. Also, the “Decomp. Time” value in series [2] is reported as below 3 h.

For `O=C(ON(Cl)C(=O)c1ccccc1)c1ccccc1` [Compound 1, N-chloro-N-benzoyloxy-benzamide], in series [1], the “% N2O DI” value is 29% and the “% N2O pH 7.4” value was 1%. Also, the “Decomp. Time” value in series [2] is listed as below 3 h.

Turning to `O=C(ON(Cl)C(=O)c1ccc(Cl)cc1)c1ccc(Cl)cc1` [Compound 2, N-chloro-N-(4-chlorobenzoyloxy)-4-chlorobenzamide], in series [1], the “% N2O DI” value was determined as 32% and the “% N2O pH 7.4” value was 1%. Moreover, in series [2], the “Decomp. Time” value is on record as below 3 h.

As for `CC(=O)ON(C(C)=O)S(=O)(=O)c1ccccc1Br` [Compound 19, N-(2-bromobenzenesulfonyl)-N-acetyloxy-acetamide], the “% N2O pH 7.4” value in series [1] is recorded as 35%. For the same molecule, in series [2], the “Decomp. Time” value is recorded as below 2 h and the half-life is around 20 min.

As to `CCOC(=O)ON(Cl)C(=O)OCC` [Compound 11, N-chloro-ethyl-carbonoxy-ethyl- carbamate], in series [1], the “% N2O DI” value turned out to be 31% and the “% N2O pH 7.4” value stood at 12%. Besides, the “Decomp. Time” value in series [2] is recorded as below 3 h.

For the molecule `CC(C)(C)C(=O)ON(Cl)C(=O)C(C)(C)C` [Compound 12, N-chloro-N-(trimethylacetyloxy)- trimethylacetamide], in series [1], the “% N2O DI” value came to 37% and the “% N2O pH 7.4” value was found to be 1%. In series [2], the “Decomp. Time” value is listed as below 3 h.

In the case of `CC(=O)ON(Br)C(C)=O` [Compound 15, N-bromo-N-acetyloxy-acetamide], in series [1], the “% N2O pH 7.4” value is 7%. Moreover, the “Decomp. Time” value in series [2] was below 3 h.

With `O=C(ON(Cl)C(=O)c1ccccc1)C(Cl)Cl` [Compound 7, N-chloro-N-dichloroacetyloxy- benzamide], the “% N2O pH 7.4” value in series [1] worked out at 7%. Besides, in series [2], the “Decomp. Time” value is on record as below 3 h.

Turning to `CC(=O)ON(C(C)=O)S(=O)(=O)c1c(F)cccc1F` [Compound 24, N-(2,6-difluorobenzenesulfonyl)-N-acetyloxy-acetamide], in series [1], the “% N2O pH 7.4” value turned out to be 23%. For the same molecule, in series [2], the “Decomp. Time” value is recorded as below 3 h and the half-life is around 30 min.

Regarding `CC(=O)ON(C(=O)C(C)(C)C)S(=O)(=O)c1cc(Cl)ccc1Cl` [Compound 31, N-(2,5-dichlorobenzenesulfonyl)-N-acetyloxy-trimethylacetamide], in series [1], the “% N2O pH 7.4” value was found to be 5%. In series [2], the “Decomp. Time” value is recorded as below 20 h.

Regarding `CC(=O)ON(C(=O)C(C)(C)C)S(=O)(=O)c1c(Cl)cccc1Cl` [Compound 33, N-(2,6-dichlorobenzenesulfonyl)-N-acetyloxy-trimethylacetamide], in series [1], the “% N2O pH 7.4” value is reported as 1% and the “% N2O pH 10.3” value is 33%. For the same molecule, the “Decomp. Time” value in series [2] is reported as below 20 h.

Regarding `CC(=O)ON(Cl)C(=O)C(C)(C)C` [Compound 14, N-chloro-N-(acetyloxy)- trimethylacetamide], in series [1], the “% N2O DI” value is listed as 48% and the “% N2O pH 7.4” value is recorded as 6%. Moreover, the “Decomp. Time” value in series [2] was below 3 h.

As for `CC(C)(C)OC(=O)N(OC(=O)c1ccc([N+](=O)[O-])cc1)S(=O)(=O)c1c(Cl)cccc1Cl` [Compound 40], in series [1], the “% N2O pH 7.4” value is given as 0%. Further, the “Decomp. Time” value in series [2] is below 3 h.

For `CC(=O)ON(Cl)C(=O)c1ccccc1` [Compound 6, N-chloro-N-acetoxy-benzamide], the “% N2O pH 7.4” value in series [1] stood at 2%. In addition, in series [2], the “Decomp. Time” value is below 3 h.

With `CCOC(=O)N(OC(C)=O)S(=O)(=O)c1c(Cl)cccc1Cl` [Compound 27], the “% N2O pH 7.4” value in series [1] is 57%. Besides, the “Decomp. Time” value in series [2] is on record as below 3 h.

`CC(=O)ON(C(=O)C(Cl)Cl)S(=O)(=O)c1c(Cl)cccc1Cl` [Compound 30, N-(2,6-dichlorobenzenesulfonyl)-N-acetyloxy-dichloroacetamide]: in series [1], the “% N2O pH 7.4” value is listed as 3% and the “% N2O pH 10.3” value is 8%. The “Decomp. Time” value in series [2] was below 3 h.

Take `CC(=O)ON(C(=O)C(C)(C)C)S(=O)(=O)c1ccccc1[N+](=O)[O-]` [Compound 32, N-(2-nitrobenzenesulfonyl)-N-acetyloxy-trimethylacetamide]: in series [1], the “% N2O pH 7.4” value amounted to 0%. In addition, in series [2], the “Decomp. Time” value is above 20 h.

For `CC(=O)ON(C(=O)OC(C)(C)C)S(=O)(=O)c1c(Br)cccc1Br` [Compound 38, N-(2,6-dibromobenzenesulfonyl)-N-acetyloxy-tert-butyl-carbamate], in series [1], the “% N2O pH 7.4” value amounted to 3% and the “% N2O pH 10.3” value is 37%. Also, in series [2], the “Decomp. Time” value is on record as below 3 h. The “% N2O esterase” value with esterase is on record as 73%.

Regarding `CC(=O)ON(C(=O)c1ccccc1)S(=O)(=O)c1c(Cl)cccc1Cl` [Compound 28, N-(2,6-dichlorobenzenesulfonyl)-N-acetyloxy-benzamide], in series [1], the “% N2O pH 7.4” value was determined as 17% and the “% N2O pH 10.3” value is 44%. Besides, in series [2], the “Decomp. Time” value was below 3 h.

Turning to `CC(=O)ON(Cl)C(C)=O` [Compound 9, N-chloro-N-acetyloxy-acetamide], in series [1], the “% N2O DI” value stood at 80% and the “% N2O pH 7.4” value is given as 15%. The “Decomp. Time” value in series [2] is below 3 h.

With `CC(=O)ON(C(C)=O)S(=O)(=O)CCl` [Compound 26, N-(chloromethylsulfonyl)-N- acetyloxy-acetamide], the “% N2O pH 7.4” value in series [1] is 13%. Moreover, in series [2], the “Decomp. Time” value is reported as below 3 h.

With `CC(=O)ON(C(=O)OC(C)(C)C)S(=O)(=O)c1ccccc1Br` [Compound 36, N-(2-bromobenzenesulfonyl)-N-acetyloxy-tert-butyl-carbamate], the “% N2O pH 7.4” value in series [1] is 7%. The “Decomp. Time” value in series [2] is below 2 h. Also, the “% N2O esterase” value in the series on esterase was 67%.

As to `CC(=O)ON(C(C)=O)S(=O)(=O)c1ccccc1Cl` [Compound 20, N-(2-chlorobenzenesulfonyl)-N-acetyloxy-acetamide], in series [1], the “% N2O pH 7.4” value amounted to 23%. Further, the “Decomp. Time” value in series [2] is given as below 3 h.
